Here are results for 36 compounds from patent US7141592B2, “Substituted oxadiazolidinediones” (Wyeth, priority 2003, dated 2006).

The assay deals with T1, recombinant human plasminogen activator inhibitor-1 (PAI-1) (Homo sapiens, UniProt P05121).
T1 construct: purchased Molecular Innovations, Royal Oak, Mich
T1 sequence (P05121 24-402): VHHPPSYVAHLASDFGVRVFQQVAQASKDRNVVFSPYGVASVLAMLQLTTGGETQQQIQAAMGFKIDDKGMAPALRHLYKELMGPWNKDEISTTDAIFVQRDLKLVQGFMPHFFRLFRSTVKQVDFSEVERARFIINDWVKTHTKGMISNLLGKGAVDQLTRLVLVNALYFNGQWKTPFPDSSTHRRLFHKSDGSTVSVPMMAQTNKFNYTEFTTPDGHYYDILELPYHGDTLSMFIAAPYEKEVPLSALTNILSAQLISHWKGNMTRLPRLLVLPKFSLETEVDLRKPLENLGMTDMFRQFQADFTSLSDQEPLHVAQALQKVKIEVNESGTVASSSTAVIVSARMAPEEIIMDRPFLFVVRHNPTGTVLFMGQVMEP
The assay can be described thus: Primary screen for the PAI-1 inhibition (chromogenic tPA activity, Spectrozyme-tPA). The class given is biochemical. Particulars: compound at 100 μM. The protocol: Test compounds are dissolved in DMSO at a final concentration of 10 mM, then diluted 100× in physiologic buffer. The inhibitory assay is initiated by the addition of the substituted oxadiazolidinedione (1–100 μM final concentration, maximun DMSO concentration of 0.2%) in a pH 6.6 buffer containing 140 nM recombinant human plasminogen activator inhibitor-1 (PAI-1; Molecular Innovations, Royal Oak, Mich.). Following a 1 hour incubation at room temperature, 70 nM of recombinant human tissue plasminogen activator (tPA) is added, and the combination of the substituted oxadiazolidinedione, PAI-1 and tPA is incubated for an additional 30 minutes. Following the second incubation, Spectrozyme-tPA (American Diagnostica, Greenwich, Conn.), a chromogenic substrate for tPA, is added and absorbance read at 405 nm at 0 and 60 minutes. Relative PAI-1 inhibition is equal to the residual tPA activity in the presence of the test compound and PAI-1. Control treatments include the complete inhibition of tPA by PAI-1 at the molar ratio employed (2:1), and the absence of any effect of the substituted oxadiazolidinedione on tPA alone.
What is called inhibition is the change of the read-out against control, counted positive when it falls. `C=CCn1cc(Cn2oc(=O)[nH]c2=O)c2cc(OCc3ccccc3Cl)ccc21` [Compound 33, 2-({1-allyl-5-[(2-chlorobenzyl)oxy]-1H-indol-3-yl}methyl)-1,2,4-oxadiazolidine-3,5-dione]: the inhibition at 100 µM is 91%. Turning to `O=c1[nH]c(=O)n(Cc2cn(Cc3ccccc3)c3ccc(OCc4cccc(Br)c4)cc23)o1` [Compound 8, 2-({1-benzyl-5-[(3-bromobenzyl)oxy]-1H-indol-3-yl}methyl)-1,2,4-oxadiazolidine-3,5-dione], the inhibition at 100 µM was found to be 94%. Still for that read-out and setting: as for `O=c1[nH]c(=O)n(Cc2ccc(-c3ccc(OCc4cccc(Br)c4)cc3)cc2)o1` [Compound 55, 2-({4′-[(3-bromobenzyl)oxy]-1,1′-biphenyl-4-yl}methyl)-1,2,4-oxadiazolidine-3,5-dione], the figure is 41%; as for `O=c1[nH]c(=O)n(Cc2cc(OCc3ccccc3Br)cc(OCc3ccccc3Br)c2)o1` [Compound 75, 2-{3,5-bis[(2-bromobenzyl)oxy]benzyl}-1,2,4-oxadiazolidine-3,5-dione], 91%. Still for that read-out and setting: as for `C=CCn1cc(Cn2oc(=O)[nH]c2=O)c2cc(OCc3ccc4ccccc4c3)ccc21` [Compound 21, 2-{[1-allyl-5-(2-naphthylmethoxy)-1H-indol-3-yl]methyl}-1,2,4-oxadiazolidine-3,5-dione], the figure is 98%; as for `O=c1[nH]c(=O)n(Cc2cccc(-c3cccc(OCc4cc(C(F)(F)F)cc(C(F)(F)F)c4)c3)c2)o1` [Compound 38, 2-[(3′-{[3,5-bis(trifluoromethyl)benzyl]oxy}-1,1′-biphenyl-3-yl)methyl]-1,2,4-oxadiazolidine-3,5-dione], 69%; as for `CCCCC#Cc1ccc(Cn2oc(=O)[nH]c2=O)cc1` [Compound 57, 2-(4-hex-1-ynylbenzyl)-1,2,4-oxadiazolidine-3,5-dione], 56%.

Regarding `O=c1[nH]c(=O)n(Cc2ccc(C#Cc3ccccc3)cc2)o1` [Compound 56, 2-[4-(phenylethynyl)benzyl]-1,2,4-oxadiazolidine-3,5-dione], the inhibition at 100 µM came to 65%. Turning to “2-[(3′-{[4-(trifluoromethyl)benzyl]oxy}-1,1′-biphenyl-3-yl)methyl]-1,2,4-oxadiazolidine-3,5-dione [Compound 37]”, the “% Inhibition @ 100 μM” value was 3%. On to `COc1cc(Cn2oc(=O)[nH]c2=O)cc(OCc2ccccc2Br)c1OCc1ccccc1Br` [Compound 80, 2-{3,4-bis[(2-bromobenzyl)oxy]-5-methoxybenzyl}-1,2,4-oxadiazolidine-3,5-dione], for which the inhibition at 100 µM came to 89%. On the same count and under the same terms, as for `C=CCn1cc(Cn2oc(=O)[nH]c2=O)c2cc(OCc3ccc(Cl)c(Cl)c3)ccc21` [Compound 34, 2-({1-allyl-5-[(3,4-dichlorobenzyl)oxy]-1H-indol-3-yl}methyl)-1,2,4-oxadiazolidine-3,5-dione], the figure is 87%; as for `C#CCn1cc(Cn2oc(=O)[nH]c2=O)c2cc(OCc3cc(C(F)(F)F)cc(C(F)(F)F)c3)ccc21` [Compound 15, 2-{[5-{[3,5-bis(trifluoromethyl)benzyl]oxy}-1-(2-propynyl)-1H-indol-3-yl]methyl}-1,2,4-oxadiazolidine-3,5-dione], 91%.

As to `O=c1[nH]c(=O)n(Cc2cccc(-c3cccc(OCc4ccccc4Cl)c3)c2)o1` [Compound 36, 2-({3′-[(2-chlorobenzyl)oxy]-1,1′-biphenyl-3-yl}methyl)-1,2,4-oxadiazolidine-3,5-dione], the inhibition at 100 µM worked out at 100%. Same read-out and setting: as for `O=c1[nH]c(=O)n(Cc2ccc(C#CCOc3cccc(Cl)c3)cc2)o1` [Compound 63, 2-{4-[3-(3-chlorophenoxy)prop-1-ynyl]benzyl}-1,2,4-oxadiazolidine-3,5-dione], the figure is 85%; as for `O=c1[nH]c(=O)n(Cc2cn(Cc3ccccc3)c3ccc(OCc4ccc(C(F)(F)F)cc4)cc23)o1` [Compound 13, 2-[(1-benzyl-5-{[4-(trifluoromethyl)benzyl]oxy}-1H-indol-3-yl)methyl]-1,2,4-oxadiazolidine-3,5-dione], 100%; as for `O=c1[nH]c(=O)n(Cc2cc(OCc3cccc(Br)c3)cc(OCc3cccc(Br)c3)c2)o1` [Compound 74, 2-{3,5-bis[(3-bromobenzyl)oxy]benzyl}-1,2,4-oxadiazolidine-3,5-dione], 92%. Same read-out and setting: as for `C=CCn1cc(Cn2oc(=O)[nH]c2=O)c2cc(OCc3ccc(C(C)(C)C)cc3)ccc21` [Compound 2, 2-({1-allyl-5-[(4-tert-butylbenzyl)oxy]-1H-indol-3-yl}methyl)-1,2,4-oxadiazolidine-3,5-dione], the figure is 100%; as for `O=c1[nH]c(=O)n(Cc2ccc(OCc3cccc(Br)c3)c(OCc3cccc(Br)c3)c2)o1` [Compound 89, 2-{3,4-bis[(3-bromobenzyl)oxy]benzyl}-1,2,4-oxadiazolidine-3,5-dione], 88%.

On to “2-[(4′-{[4-(trifluoromethyl)benzyl]oxy}-1,1′-biphenyl-3-yl)methyl]-1,2,4-oxadiazolidine-3,5-dione [Compound 49]”, for which the “% Inhibition @ 100 μM” value stood at 28%. In the case of `O=c1[nH]c(=O)n(Cc2cn(Cc3ccccc3)c3ccc(OCc4cc(C(F)(F)F)cc(C(F)(F)F)c4)cc23)o1` [Compound 7, 2-[(1-benzyl-5-{[3,5-bis(trifluoromethyl)benzyl]oxy}-1H-indol-3-yl)methyl]-1,2,4-oxadiazolidine-3,5-dione], the inhibition at 100 µM turned out to be 94%.

Consider `CC(C)(C)c1ccc(OCC#Cc2cccc(Cn3oc(=O)[nH]c3=O)c2)cc1` [Compound 65, 2-{3-[3-(4-tert-butylphenoxy)prop-1-ynyl]benzyl}-1,2,4-oxadiazolidine-3,5-dione], for which the inhibition at 100 µM came out at 77%. On to “2-{[5-(phenylethynyl)thien-2-yl]methyl}-1,2,4-oxadiazolidine-3,5-dione [Compound 59]”, for which the “% Inhibition @ 100 μM” value is on record as 60%. For `O=c1[nH]c(=O)n(Cc2ccc(OCc3cccc(Cl)c3)c(OCc3cccc(Cl)c3)c2)o1` [Compound 88, 2-{3,4-bis[(3-chlorobenzyl)oxy]benzyl}-1,2,4-oxadiazolidine-3,5-dione], the inhibition at 100 µM was 91%. In the case of `O=c1[nH]c(=O)n(Cc2cccc(-c3cccc(OCc4ccc(Cl)cc4)c3)c2)o1` [Compound 42, 2-({3′-[(4-chlorobenzyl)oxy]-1,1′-biphenyl-3-yl}methyl)-1,2,4-oxadiazolidine-3,5-dione], the inhibition at 100 µM amounted to 100%.

With `C=CCn1cc(Cn2oc(=O)[nH]c2=O)c2cc(OCc3cccc(Br)c3)ccc21` [Compound 27, 2-({1-allyl-5-[(3-bromobenzyl)oxy]-1H-indol-3-yl}methyl)-1,2,4-oxadiazolidine-3,5-dione], the inhibition at 100 µM worked out at 100%. As to `C#CCn1cc(Cn2oc(=O)[nH]c2=O)c2cc(OCc3cccc(Cl)c3)ccc21` [Compound 28, 2-{[5-[(3-chlorobenzyl)oxy]-1-(2-propynyl)-1H-indol-3-yl]methyl}-1,2,4-oxadiazolidine-3,5-dione], the inhibition at 100 µM is 48%. The same measure, in the same setting: next, `O=c1[nH]c(=O)n(Cc2ccc(C#CCOc3cc(Cl)cc(Cl)c3)cc2)o1` [Compound 62, 2-{4-[3-(3,5-dichlorophenoxy)prop-1-ynyl]benzyl}-1,2,4-oxadiazolidine-3,5-dione]: 82%. As to “2-{[4-(phenylethynyl)thien-2-yl]methyl}-1,2,4-oxadiazolidine-3,5-dione [Compound 58]”, the “% Inhibition @ 100 μM” value came to 45%. Consider `Cc1cccc(COc2cccc(-c3cccc(Cn4oc(=O)[nH]c4=O)c3)c2)c1` [Compound 46, 2-({3′-[(3-methylbenzyl)oxy]-1,1′-biphenyl-3-yl}methyl)-1,2,4-oxadiazolidine-3,5-dione], for which the inhibition at 100 µM came out at 80%.

For `COc1cc(Cn2oc(=O)[nH]c2=O)cc(OCc2ccc(C(F)(F)F)cc2)c1OCc1ccc(C(F)(F)F)cc1` [Compound 76, 2-(3-methoxy-4,5-bis{[4-(trifluoromethyl)benzyl]oxy}benzyl)-1,2,4-oxadiazolidine-3,5-dione], the inhibition at 100 µM was 95%.

Regarding “2-({4′-[(3-bromobenzyl)oxy]-1,1′-biphenyl-3-yl}methyl)-1,2,4-oxadiazolidine-3,5-dione [Compound 52]”, the “% Inhibition @ 100 μM” value turned out to be 80%. Turning to `O=c1[nH]c(=O)n(Cc2cccc(C#Cc3ccccc3)c2)o1` [Compound 60, 2-[3-(phenylethynyl)benzyl]-1,2,4-oxadiazolidine-3,5-dione], the inhibition at 100 µM is 38%. The same measure, in the same setting: next, `O=c1[nH]c(=O)n(Cc2cc(OCc3cccc(Cl)c3)cc(OCc3cccc(Cl)c3)c2)o1` [Compound 71, 2-{3,5-bis[(3-chlorobenzyl)oxy]benzyl}-1,2,4-oxadiazolidine-3,5-dione]: 85%. On to `O=c1[nH]c(=O)n(Cc2cccc(C#CCOc3cc(C(F)(F)F)cc(C(F)(F)F)c3)c2)o1` [Compound 67, 2-(3-{3-[3,5-bis(trifluoromethyl)phenoxy]prop-1-ynyl}benzyl)-1,2,4-oxadiazolidine-3,5-dione], for which the inhibition at 100 µM worked out at 84%. As to “2-[(4′-{[3,5-bis(trifluoromethyl)benzyl]oxy}-1,1′-biphenyl-3-yl)methyl]-1,2,4-oxadiazolidine-3,5-dione [Compound 51]”, the “% Inhibition @ 100 μM” value is reported as 65%. With `Cc1cccc(COc2ccc(Cn3oc(=O)[nH]c3=O)cc2OCc2cccc(C)c2)c1` [Compound 87, 2-{3,4-bis[(3-methylbenzyl)oxy]benzyl}-1,2,4-oxadiazolidine-3,5-dione], the inhibition at 100 µM worked out at 92%.
